Experimental findings from patent US20220370416A1, “COMPOUNDS AND METHODS FOR TARGETED DEGRADATION OF KRAS” (Arvinas Operations, Inc., priority 2020, published 2022) are described below.

SMILES strings stand for the structures.

The assay concerns the target KRAS^G12C (Homo sapiens, UniProt P01116, G12C). The experiment in a line: KRAS^G12C engagement and degradation by immunoblot in SW1573 cells. The format is cell-based. The arrangement: MRTX849-VHL bifunctional compounds engage and degrade endogenous KRAS^G12C in NCI-H2030 cells; endogenous in cells; host or cells: NCI-H2030, NCI-H358, MIA PaCa-2, SW1573, NCI-H23. The conditions noted are these: for KRAS, two-way ANOVA significance vs DMSO: FIG. 11. On the procedure: NCI-H2030 (CRL-5914), MIA PaCa-2 (CRL-1420), NCI-H23 (CRL-5800), NCI-H358 (CRL-5807), and HCT-116 (CCL-247) cells were obtained from ATCC, expanded immediately, and frozen down. Vials were thawed and used within 20 passages. SW1573 cells were a gift from Arvinas and were handled in the same manner. NCI-H2030, NCI-H23, and NCI-H358 were cultured in RPMI (ATCC30-2001) supplemented with 10% FBS (Biological Industries; cat. no. S1480) and 1% Penicillin-Streptomycin (ThermoFisher; cat. no. 15140122). HCT-116 cells were maintained in high glucose DMEM (ThermoFisher; cat. no. 11965084) supplemented as above. MIA PaCa-2 cells were cultured in high glucose DMEM supplemented with 10% FBS, 2.5% horse serum (ThermoFisher; cat. no. 26050-088; lot 2109875), and 1% Penicillin-Streptomycin. SW1573 cells were maintained in DMEM/F12 Nutrient Mix with GlutaMAX supplement (ThermoFisher; cat. no. 10565018) with 10% FBS and 1% Penicillin-Streptomycin added. DPBS (ThermoFisher; cat. no. 14190250) was used to wash cells and 0.25% Trypsin-EDTA (ThermoFisher; cat. no. […]) was used to detach cells for passaging. […] The VHL ligand was generously provided by Arvinas.
Between 2.5×10^5 and 6.0×10^5 cells were seeded into 6-well plates (Corning; cat. no. 353046). The next day, media was removed and cells were treated with 2.5 μM LC-2 for 1, 2, 4, 8, 12, or 24 hours. […] For 24-hour time course experiments, cells were treated at the indicated times and concurrently lysed in RIPA buffer supplemented as described previously. For longer time course experiments and time courses in which cells were treated with LC-2 or LC-2 Epimer, cells were concurrently treated with either compound, then lysed by scraping in RIPA buffer at the indicated time points.
Cell lysates were clarified at 21000×g for 15 mins at 4° C. Protein levels were quantified using a 50:1 mixture of bicinchoninic acid solution (Millipore Sigma; cat. no. B9643) and 4% (w/v) copper(II) sulfate solution (Millipore Sigma; cat. no. C2284) incubated at 37° C. for 30 mins. Absorbance values at 560 nm were read on an EnVision 2101 Multilabel Reader (PerkinElmer). Proteins were separated using 26 well Criterion TGX precast 4-15% (cat. no. 5671085) or 8-16% (cat. no. 5671105) gradient midi gels. After separation, proteins were transferred to nitrocellulose or PVDF membranes at 76 V for 2 hours at 4° C. Blots were then blocked in 5% milk in tris-buffered saline with Tween-20 (TBST; 20 mM Tris, 150 mM NaCl, 0.02% Tween-20). After blocking, blots were incubated in primary antibody overnight (12-18 hours) at 4° C. or for 2 hours at room temperature with mild agitation at the manufacturer's indicated dilution in either 5% milk or 5% BSA in TBST. Blots were then washed thrice with TBST for 5 mins at room temperature. After washing, blots were incubated with 1:5,000-1:10,000 of donkey anti-rabbit (GE Life Sciences; NA934) or sheep anti-mouse (GE Life Sciences; NA931) secondary antibody diluted in 5% milk for 1 hour at room temperature with mild agitation. Blots were again washed thrice with TBST for 5 mins. Chemiluminescent signal was generated using Amersham ECL Prime Western Blotting Detection Reagant (GE Life Sciences; cat. no. RPN2232) or SuperSignal West Femto Maximum Sensitivity Substrate (ThermoFisher; cat. no. 34095). Images were obtained using a Bio-Rad ChemiDoc Imager. Fluorescent α-tubulin images were collected with the Bio-Rad ChemiDoc Imager using an Alexa488 filter. The primary antibodies used in this work include: KRAS (LSBio; clone 2C1; cat. no. LS-C175665), p-p42/44 MAPK (phospho T202/Y204) (pErk; Cell Signaling Technologies (CST); cat. no. 4370S or 9106S), p42/44 MAPK (Erk1/2; CST; cat. no. 4695S), alpha-tubulin (CST; 2144S), and alpha-tubulin w/AlexaFluor488 (Millipore; cat. no. 16-232).
Band intensities were quantified using BioRad's Image Lab Software. […]

With `C=C(F)C(=O)N1CCN(c2nc(OC[C@@H]3CCCN3CCCOCCC(=O)N[C@H](C(=O)N3C[C@@H](O)C[C@H]3C(=O)NCc3ccc(-c4scnc4C)cc3)C(C)(C)C)nc3c2CCN(c2cccc4cccc(Cl)c24)C3)C[C@@H]1CC#N` [LC-2 Epimer, (2S,4S)-1-((S)-2-(3-(3-((S)-2-(((7-(8-chloronaphthalen-1-yl)-4-((S)-3-(cyanomethyl)-4-(2-fluoroacryloyl)piperazin-1-yl)-5,6,7,8-tetrahydropyrido[3,4-d]pyrimidin-2-yl)oxy)methyl)pyrrolidin-1-yl)propoxy)propanamido)-3,3-dimethylbutanoyl)-4-hydroxy-N-(4-(4-methylthiazol-5-yl)benzyl)pyrrolidine-2-carboxamide], where the note is “SW1573, 2.5 μM”, the “time to near maximal engagement” value came to 1 h. Further, the “KRAS^G12C engagement and protein levels” value (SW1573, longer time course (FIG. 8)) is reported as “fully engaged KRAS^G12C in SW1573 cells, but did not decrease protein levels”.
For `C=C(F)C(=O)N1CCN(c2nc(OC[C@@H]3CCCN3CCCOCCC(=O)N[C@H](C(=O)N3C[C@H](O)C[C@H]3C(=O)NCc3ccc(-c4scnc4C)cc3)C(C)(C)C)nc3c2CCN(c2cccc4cccc(Cl)c24)C3)C[C@@H]1CC#N` [LC-2, (2S,4R)-1-((S)-2-(3-(3-((S)-2-(((7-(8-chloronaphthalen-1-yl)-4-((S)-3-(cyanomethyl)-4-(2-fluoroacryloyl)piperazin-1-yl)-5,6,7,8-tetrahydropyrido[3,4-d]pyrimidin-2-yl)oxy)methyl)pyrrolidin-1-yl)propoxy)propanamido)-3,3-dimethylbutanoyl)-4-hydroxy-N-(4-(4-methylthiazol-5-yl)benzyl)pyrrolidine-2-carboxamide], the “duration of KRAS degradation” value (SW1573, 2.5 μM) is reported as “sustained up to 72 hours”. In addition, the “time to maximal KRAS degradation” value (SW1573, 2.5 μM, 6, 24, 48, 72 hours) is not above 24 h. Besides, the “KRAS, two-way ANOVA significance vs DMSO” value (SW1573, 2.5 μM, 1 hour) was “N.S”; the “KRAS, two-way ANOVA significance vs DMSO” value (SW1573, 2.5 μM, 2 hours) was “N.S”; the “KRAS, two-way ANOVA significance vs DMSO” value (SW1573, 2.5 μM, 4 hours) is listed as “N.S”; the “KRAS, two-way ANOVA significance vs DMSO” value (SW1573, 2.5 μM, 8 hours) is “** (** p < 0.01)”; the “KRAS, two-way ANOVA significance vs DMSO” value (SW1573, 2.5 μM, 12 hours) is recorded as “** (** p < 0.01)”; the “KRAS, two-way ANOVA significance vs DMSO” value (SW1573, 2.5 μM, 24 hours) is “*** (*** p < 0.005)”. In addition, the “time to maximal degradation” value (SW1573, 2.5 μM, 24 hour time course) was 12 h. The molecule also displayed a DC50 (SW1573, homozygous KRAS^G12C) of 760 ± 300 nM. Moreover, the maximal degradation (Dmax) (SW1573, homozygous KRAS^G12C) was more than 85%.
